Laboratory results published in patent US20260028354A1, “TETRAHYDRONAPHTHALENE DERIVATIVES AS ESTROGEN RECEPTOR DEGRADERS” (REGENT OF THE UNIVERSITY OF MICHIGAN, priority 2022, published 2026).
Read-outs that look alike come from different tables or passages of the source.

Legend:
[1] = Cell growth assay (WST-8) for "B" compounds; assay type: cell-based; settings: T47D, read-out: Cell growth Inhibition in T47D cell line IC50
Procedure, shortened: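 Cells seeded at 1500/well overnight, then exposed to compounds for 4 days. 10% WST-8 added for 2.5 h at 37 °C and absorbance read at 450 nm. Growth given as absorbance relative to vehicle control, from three repeats.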

ER = ER (Homo sapiens (Human), UniProt P03372); experiment: In-cell western blot analysis of ER for "B" compounds; assay type: cell-based; settings: 16 hours, read-out: ICW DC50
Procedure, shortened: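 In-cell western: fixed cells stained with primary antibodies (2 h, RT), then anti-rabbit-680 and anti-mouse-800 secondaries (1:1000, 1 h, RT), imaged on a LI-COR plate reader. Relative ER level in treated wells expressed against untreated and DMSO-treated wells set as 100%.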

Chain of ER (P03372 whole entry): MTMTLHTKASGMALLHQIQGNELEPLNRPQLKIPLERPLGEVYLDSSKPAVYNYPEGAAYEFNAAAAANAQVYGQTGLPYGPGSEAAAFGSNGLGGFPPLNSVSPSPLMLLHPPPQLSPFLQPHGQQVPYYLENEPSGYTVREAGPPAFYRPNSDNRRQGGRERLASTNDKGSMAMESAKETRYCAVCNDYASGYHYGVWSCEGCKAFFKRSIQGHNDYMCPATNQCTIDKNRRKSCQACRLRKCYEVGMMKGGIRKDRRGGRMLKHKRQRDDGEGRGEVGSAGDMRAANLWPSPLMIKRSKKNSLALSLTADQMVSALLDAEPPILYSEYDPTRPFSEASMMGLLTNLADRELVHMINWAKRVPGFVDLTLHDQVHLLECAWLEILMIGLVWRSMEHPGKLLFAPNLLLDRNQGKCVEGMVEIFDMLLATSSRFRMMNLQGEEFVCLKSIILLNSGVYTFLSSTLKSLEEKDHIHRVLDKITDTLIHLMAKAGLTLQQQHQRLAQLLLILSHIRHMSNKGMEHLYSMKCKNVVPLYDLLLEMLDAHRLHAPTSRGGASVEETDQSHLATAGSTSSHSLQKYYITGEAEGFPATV

## O=C1CCC(N2Cc3cc4c(cc3C2=O)OC[C@@H]2CN(C3CN(CC5CCN(c6ccc([C@@H]7c8ccc(O)cc8CC[C@@H]7c7ccccc7)cc6)CC5)C3)CCN42)C(=O)N1 (stereo partly drawn) [Compound B164, 3-((S)-3-(1-((1-(4-((1R,2S)-6-hydroxy-2-phenyl-1,2,3,4-tetrahydronaphthalen-1-yl)phenyl)piperidin-4-yl)methyl)azetidin-3-yl)-8-oxo-1,2,3,4,4a,5,8,10-octahydro-9H-pyrazino[1′,2′:4,5][1,4]oxazino[2,3-f]isoindol-9-yl)piperidine-2,6-dione]
[1]; T47D cell line
  IC50: 1 to 10 nM
ER
  DC50: < 10 nM

## O=C1CCC(N2Cc3c(ccc4c3OCCC43CCN(CC4CCN(c5ccc([C@@H]6c7ccc(O)cc7CC[C@@H]6c6ccccc6)cc5)CC4)CC3)C2=O)C(=O)N1 (stereo partly drawn) [Compound B165, 3-(1-((1-(4-((1R,2S)-6-hydroxy-2-phenyl-1,2,3,4-tetrahydronaphthalen-1-yl)phenyl)piperidin-4-yl)methyl)-7′-oxo-2′,3′,7′,9′-tetrahydro-8′H-spiro[piperidine-4,4′-pyrano[2,3-e]isoindol]-8′-yl)piperidine-2,6-dione]
[1]
  IC50: < 1 nM
ER
  DC50: > 100 nM

## O=C1CCC(N2Cc3cc4c(cc3C2=O)CN(CC(=O)N2CCC3(CC2)CCN(c2ccc([C@@H]5c6ccc(O)cc6CC[C@@H]5c5ccccc5)cc2)CC3)C4)C(=O)N1 (stereo partly drawn) [Compound B166, 3-(6-(2-(9-(4-((1R,2S)-6-hydroxy-2-phenyl-1,2,3,4-tetrahydronaphthalen-1-yl)phenyl)-3,9-diazaspiro[5.5]undecan-3-yl)-2-oxoethyl)-1-oxo-3,5,6,7-tetrahydropyrrolo[3,4-f]isoindol-2(1H)-yl)piperidine-2,6-dione]
[1]; T47D cell line
  IC50: < 1 nM
ER
  DC50: < 10 nM

## O=C1CCC(N2Cc3cc4c(cc3C2=O)OC[C@@H]2CN(C3CN(C5CCN(c6ccc([C@@H]7c8ccc(O)cc8CC[C@@H]7c7ccccc7)cc6)CC5)C3)CCN42)C(=O)N1 (stereo partly drawn) [Compound B167, 3-((S)-3-(1-(1-(4-((1R,2S)-6-hydroxy-2-phenyl-1,2,3,4-tetrahydronaphthalen-1-yl)phenyl)piperidin-4-yl)azetidin-3-yl)-8-oxo-1,2,3,4,4a,5,8,10-octahydro-9H-pyrazino[1′,2′:4,5][1,4]oxazino[2,3-f]isoindol-9-yl)piperidine-2,6-dione]
[1]; T47D cell line
  IC50: < 1 nM
ER
  DC50: < 10 nM

## O=C1CCC(N2Cc3c(ccc4c3OCC43CCN(C(=O)CN4CC5(CC(Nc6ccc([C@@H]7c8ccc(O)cc8CC[C@@H]7c7ccccc7)cc6)C5)C4)CC3)C2=O)C(=O)N1 (stereo partly drawn) [Compound B168, 3-(1′-(2-(6-((4-((1R,2S)-6-hydroxy-2-phenyl-1,2,3,4-tetrahydronaphthalen-1-yl)phenyl)amino)-2-azaspiro[3.3]heptan-2-yl)acetyl)-6-oxo-6,8-dihydro-2H,7H-spiro[furo[2,3-e]isoindole-3,4′-piperidin]-7-yl)piperidine-2,6-dione]
[1]; T47D cell line
  IC50: < 1 nM
ER
  DC50: < 10 nM

## O=C1CCC(N2Cc3c(ccc4c3OCC43CCN(CC(=O)N4CC5(CC(Nc6ccc([C@@H]7c8ccc(O)cc8CC[C@@H]7c7ccccc7)cc6)C5)C4)CC3)C2=O)C(=O)N1 (stereo partly drawn) [Compound B170, 3-(1′-(2-(6-((4-((1R,2S)-6-hydroxy-2-phenyl-1,2,3,4-tetrahydronaphthalen-1-yl)phenyl)amino)-2-azaspiro[3.3]heptan-2-yl)-2-oxoethyl)-6-oxo-6,8-dihydro-2H,7H-spiro[furo[2,3-e]isoindole-3,4′-piperidin]-7-yl)piperidine-2,6-dione]
[1]
  IC50: < 1 nM
ER
  DC50: < 10 nM

## O=C1CCC(N2Cc3c(ccc4c3OCC43CCN(CC(=O)N4CC5(CCN(c6ccc([C@@H]7c8ccc(O)cc8CC[C@@H]7c7ccccc7)cc6)CC5)C4)CC3)C2=O)C(=O)N1 (stereo partly drawn) [Compound B171, 3-(1′-(2-(7-(4-((1R,2S)-6-hydroxy-2-phenyl-1,2,3,4-tetrahydronaphthalen-1-yl)phenyl)-2,7-diazaspiro[3.5]nonan-2-yl)-2-oxoethyl)-6-oxo-6,8-dihydro-2H,7H-spiro[furo[2,3-e]isoindole-3,4′-piperidin]-7-yl)piperidine-2,6-dione]
[1]
  IC50: < 1 nM
ER
  DC50: < 10 nM
